Data reported in the kinase profiling compilation of Christmann-Franck et al. (2016).

What was measured:
Test in all cases: KINOMEscan competition binding
Details in all cases: compound 10.0 µM
ACVR1B (human) = ACVR1B (human) (UniProt P36896)
AURKB (human) = AURKB (human) (UniProt Q96GD4)
AXL (human) = AXL (human) (UniProt P30530)
BMPR2 (human) = BMPR2 (human) (UniProt Q13873)
BMX (human) = BMX (human) (UniProt P51813)
CAMK2G (human) = CAMK2G (human) (UniProt Q13555)
CDK15 (human) = CDK15 (human) (UniProt Q96Q40)
CDK16 (human) = CDK16 (human) (UniProt Q00536)
CDK19 (human) = CDK19 (human) (UniProt Q9BWU1)
CDK8 (human) = CDK8 (human) (UniProt P49336)
CSF1R (human) = CSF1R (human) (UniProt P07333)
CSNK2A2 (human) = CSNK2A2 (human) (UniProt P19784)
DAPK1 (human) = DAPK1 (human) (UniProt P53355)
DCLK2 (human) = DCLK2 (human) (UniProt Q8N568)
DDR1 (human) = DDR1 (human) (UniProt Q08345)
HIPK2 (human) = HIPK2 (human) (UniProt Q9H2X6)
HIPK4 (human) = HIPK4 (human) (UniProt Q8NE63)
IRAK1 (human) = IRAK1 (human) (UniProt P51617)
[1] = biological target: JAK2 JH1 catalytic (human) (UniProt O60674)
MAP3K10 (human) = MAP3K10 (human) (UniProt Q02779)
[2] = system: MET (human), P08581 [Y1235D]
MKNK1 (human) = MKNK1 (human) (UniProt Q9BUB5)
NTRK1 (human) = NTRK1 (human) (UniProt P04629)
NUAK1 (human) = NUAK1 (human) (UniProt O60285)
PAK7 (human) = PAK7 (human) (UniProt Q9P286)
[3] = system: PIK3CA (human), P42336 [M1043I]
PIK3CG (human) = PIK3CG (human) (UniProt P48736)
PKMYT1 (human) = PKMYT1 (human) (UniProt Q99640)
RPS6KA5 KD2 (human) = RPS6KA5 KD2 (human) (UniProt O75582)
RPS6KA6 KD1 (human) = RPS6KA6 KD1 (human) (UniProt Q9UK32)
SGK110 (human) = SGK110 (human) (UniProt P0C264)
SIK3 (human) = SIK3 (human) (UniProt Q9Y2K2)
SRPK3 (human) = SRPK3 (human) (UniProt Q9UPE1)
STK3 (human) = STK3 (human) (UniProt Q13188)
STK33 (human) = STK33 (human) (UniProt Q9BYT3)
STK38 (human) = STK38 (human) (UniProt Q15208)
STK38L (human) = STK38L (human) (UniProt Q9Y2H1)
SYK (human) = SYK (human) (UniProt P43405)
TNIK (human) = TNIK (human) (UniProt Q9UKE5)
TSSK1B (human) = TSSK1B (human) (UniProt Q9BXA7)
TTK (human) = TTK (human) (UniProt P33981)

Chain of NUAK1 (human) (O60285 whole entry, looked up): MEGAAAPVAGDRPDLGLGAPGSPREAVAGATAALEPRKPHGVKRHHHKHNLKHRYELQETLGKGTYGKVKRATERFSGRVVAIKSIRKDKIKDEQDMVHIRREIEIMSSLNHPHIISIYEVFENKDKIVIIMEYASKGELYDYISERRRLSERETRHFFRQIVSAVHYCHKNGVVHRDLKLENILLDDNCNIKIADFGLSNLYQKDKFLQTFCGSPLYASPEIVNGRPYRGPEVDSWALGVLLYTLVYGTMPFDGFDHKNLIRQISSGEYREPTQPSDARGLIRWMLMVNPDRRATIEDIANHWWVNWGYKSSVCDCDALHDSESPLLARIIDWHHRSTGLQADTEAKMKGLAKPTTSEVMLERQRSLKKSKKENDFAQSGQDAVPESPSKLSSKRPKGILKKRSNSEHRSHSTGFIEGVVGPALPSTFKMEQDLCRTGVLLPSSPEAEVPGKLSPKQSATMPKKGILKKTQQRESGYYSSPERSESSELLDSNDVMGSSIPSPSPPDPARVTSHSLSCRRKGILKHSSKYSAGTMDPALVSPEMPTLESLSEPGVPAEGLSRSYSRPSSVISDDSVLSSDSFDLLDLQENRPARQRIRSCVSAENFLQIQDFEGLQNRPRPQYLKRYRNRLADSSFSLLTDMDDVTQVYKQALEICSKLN
Chain of MKNK1 (human) (Q9BUB5 whole entry, looked up): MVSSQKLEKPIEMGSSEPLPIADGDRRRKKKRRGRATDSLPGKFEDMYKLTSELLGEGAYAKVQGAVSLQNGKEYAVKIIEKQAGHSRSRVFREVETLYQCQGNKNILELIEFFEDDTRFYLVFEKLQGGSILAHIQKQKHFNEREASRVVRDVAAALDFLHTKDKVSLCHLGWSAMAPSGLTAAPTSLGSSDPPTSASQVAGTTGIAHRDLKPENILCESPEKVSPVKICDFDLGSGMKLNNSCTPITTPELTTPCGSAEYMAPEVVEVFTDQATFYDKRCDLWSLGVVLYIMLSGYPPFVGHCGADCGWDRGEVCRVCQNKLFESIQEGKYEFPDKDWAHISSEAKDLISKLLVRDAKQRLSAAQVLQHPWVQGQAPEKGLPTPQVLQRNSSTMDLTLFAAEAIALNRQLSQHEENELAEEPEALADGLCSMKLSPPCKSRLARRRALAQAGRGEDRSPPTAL
Chain of MAP3K10 (human) (Q02779 whole entry, looked up): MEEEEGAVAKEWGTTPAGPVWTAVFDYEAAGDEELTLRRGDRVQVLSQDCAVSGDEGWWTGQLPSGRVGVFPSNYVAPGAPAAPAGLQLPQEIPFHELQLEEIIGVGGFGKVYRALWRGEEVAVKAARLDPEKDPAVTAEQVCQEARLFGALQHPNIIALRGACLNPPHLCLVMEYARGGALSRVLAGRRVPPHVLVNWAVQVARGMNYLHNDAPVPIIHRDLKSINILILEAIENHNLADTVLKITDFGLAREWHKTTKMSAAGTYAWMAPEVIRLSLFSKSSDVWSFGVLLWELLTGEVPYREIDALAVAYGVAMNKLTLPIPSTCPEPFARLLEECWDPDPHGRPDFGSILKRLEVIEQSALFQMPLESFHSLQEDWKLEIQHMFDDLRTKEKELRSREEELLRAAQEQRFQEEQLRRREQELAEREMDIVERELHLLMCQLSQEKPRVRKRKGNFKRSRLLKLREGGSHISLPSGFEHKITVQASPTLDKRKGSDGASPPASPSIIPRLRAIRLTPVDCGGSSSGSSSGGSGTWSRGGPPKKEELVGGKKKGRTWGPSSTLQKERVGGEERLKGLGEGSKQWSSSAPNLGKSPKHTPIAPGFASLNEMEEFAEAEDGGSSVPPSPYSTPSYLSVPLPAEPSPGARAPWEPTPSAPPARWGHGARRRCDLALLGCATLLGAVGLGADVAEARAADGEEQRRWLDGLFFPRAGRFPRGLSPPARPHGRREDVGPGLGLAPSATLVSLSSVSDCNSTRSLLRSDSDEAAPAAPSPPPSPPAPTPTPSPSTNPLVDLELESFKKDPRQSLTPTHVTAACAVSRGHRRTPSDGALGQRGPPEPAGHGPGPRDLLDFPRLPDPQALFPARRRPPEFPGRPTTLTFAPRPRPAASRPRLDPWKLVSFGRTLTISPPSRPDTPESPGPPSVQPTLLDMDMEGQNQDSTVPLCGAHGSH
Chain of TNIK (human) (Q9UKE5 whole entry, looked up): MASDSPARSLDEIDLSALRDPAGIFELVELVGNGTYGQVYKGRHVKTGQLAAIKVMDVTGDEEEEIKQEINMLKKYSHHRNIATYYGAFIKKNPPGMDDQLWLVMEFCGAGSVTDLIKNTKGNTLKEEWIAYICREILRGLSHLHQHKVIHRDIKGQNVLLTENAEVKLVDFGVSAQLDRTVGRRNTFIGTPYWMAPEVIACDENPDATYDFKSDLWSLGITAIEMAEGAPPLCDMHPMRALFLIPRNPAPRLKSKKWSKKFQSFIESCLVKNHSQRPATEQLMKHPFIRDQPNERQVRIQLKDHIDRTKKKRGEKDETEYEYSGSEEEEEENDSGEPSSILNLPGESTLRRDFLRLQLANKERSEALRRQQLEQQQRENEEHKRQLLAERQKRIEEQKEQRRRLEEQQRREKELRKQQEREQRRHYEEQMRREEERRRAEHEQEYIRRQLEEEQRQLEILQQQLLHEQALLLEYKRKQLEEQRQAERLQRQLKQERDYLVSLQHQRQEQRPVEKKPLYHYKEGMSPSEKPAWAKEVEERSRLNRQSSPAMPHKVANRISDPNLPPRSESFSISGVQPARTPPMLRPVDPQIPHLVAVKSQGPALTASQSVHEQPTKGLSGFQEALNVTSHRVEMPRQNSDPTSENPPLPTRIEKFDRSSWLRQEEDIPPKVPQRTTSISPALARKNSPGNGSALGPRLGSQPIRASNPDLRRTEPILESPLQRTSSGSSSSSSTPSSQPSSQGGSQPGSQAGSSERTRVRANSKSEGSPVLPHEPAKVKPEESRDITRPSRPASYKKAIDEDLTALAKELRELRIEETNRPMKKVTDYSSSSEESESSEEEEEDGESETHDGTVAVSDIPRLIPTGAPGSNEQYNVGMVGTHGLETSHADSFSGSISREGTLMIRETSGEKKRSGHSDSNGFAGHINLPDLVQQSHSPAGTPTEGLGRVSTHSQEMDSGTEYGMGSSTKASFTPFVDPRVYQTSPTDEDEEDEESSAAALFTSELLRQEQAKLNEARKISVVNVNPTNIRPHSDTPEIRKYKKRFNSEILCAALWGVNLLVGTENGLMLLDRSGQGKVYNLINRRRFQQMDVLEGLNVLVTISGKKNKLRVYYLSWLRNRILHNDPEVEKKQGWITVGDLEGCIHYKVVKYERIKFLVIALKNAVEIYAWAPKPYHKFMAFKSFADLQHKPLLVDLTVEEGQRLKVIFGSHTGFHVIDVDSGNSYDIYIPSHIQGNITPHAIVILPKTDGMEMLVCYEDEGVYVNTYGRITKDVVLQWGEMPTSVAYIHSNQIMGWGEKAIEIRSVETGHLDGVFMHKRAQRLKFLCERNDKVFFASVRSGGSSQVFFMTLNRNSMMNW
Chain of PKMYT1 (human) (Q99640 whole entry, looked up): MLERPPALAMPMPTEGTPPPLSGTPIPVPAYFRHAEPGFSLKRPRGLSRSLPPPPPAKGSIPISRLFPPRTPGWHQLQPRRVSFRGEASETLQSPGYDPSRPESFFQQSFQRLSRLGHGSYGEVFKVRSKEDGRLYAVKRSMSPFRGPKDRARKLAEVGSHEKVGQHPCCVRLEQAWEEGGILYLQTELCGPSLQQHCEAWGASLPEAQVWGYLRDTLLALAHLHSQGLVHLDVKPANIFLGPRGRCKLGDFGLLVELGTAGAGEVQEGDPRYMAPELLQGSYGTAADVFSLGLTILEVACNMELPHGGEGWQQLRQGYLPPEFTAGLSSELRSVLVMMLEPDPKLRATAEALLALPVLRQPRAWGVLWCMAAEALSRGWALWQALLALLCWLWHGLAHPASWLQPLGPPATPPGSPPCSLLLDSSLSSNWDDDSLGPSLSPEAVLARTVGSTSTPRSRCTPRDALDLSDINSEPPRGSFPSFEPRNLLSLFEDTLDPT
Chain of CAMK2G (human) (Q13555 whole entry, looked up): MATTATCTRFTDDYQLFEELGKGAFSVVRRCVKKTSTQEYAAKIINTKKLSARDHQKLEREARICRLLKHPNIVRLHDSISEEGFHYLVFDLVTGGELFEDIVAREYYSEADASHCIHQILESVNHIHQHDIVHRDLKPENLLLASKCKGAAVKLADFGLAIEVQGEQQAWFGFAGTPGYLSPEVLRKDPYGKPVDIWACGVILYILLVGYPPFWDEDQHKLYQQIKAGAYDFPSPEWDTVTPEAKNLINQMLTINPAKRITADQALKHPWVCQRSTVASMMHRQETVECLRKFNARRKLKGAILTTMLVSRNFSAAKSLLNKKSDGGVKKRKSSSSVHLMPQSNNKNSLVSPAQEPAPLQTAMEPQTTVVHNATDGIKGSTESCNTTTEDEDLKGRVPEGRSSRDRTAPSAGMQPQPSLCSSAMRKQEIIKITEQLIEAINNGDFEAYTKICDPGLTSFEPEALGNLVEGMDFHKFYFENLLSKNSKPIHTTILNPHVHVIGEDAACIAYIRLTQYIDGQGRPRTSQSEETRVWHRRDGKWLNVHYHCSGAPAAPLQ
Chain of CDK15 (human) (Q96Q40 whole entry, looked up): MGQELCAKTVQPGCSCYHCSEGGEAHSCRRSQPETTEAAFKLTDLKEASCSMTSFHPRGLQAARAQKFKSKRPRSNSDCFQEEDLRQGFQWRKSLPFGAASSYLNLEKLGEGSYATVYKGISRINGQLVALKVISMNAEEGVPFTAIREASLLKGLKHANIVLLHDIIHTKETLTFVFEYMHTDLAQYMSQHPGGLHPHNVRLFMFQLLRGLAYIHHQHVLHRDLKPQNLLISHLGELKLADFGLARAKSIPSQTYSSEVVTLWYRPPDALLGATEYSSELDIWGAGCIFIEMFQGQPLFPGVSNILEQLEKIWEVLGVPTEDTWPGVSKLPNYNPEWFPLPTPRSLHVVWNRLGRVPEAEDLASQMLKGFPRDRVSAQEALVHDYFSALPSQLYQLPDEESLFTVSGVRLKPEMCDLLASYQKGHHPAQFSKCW

kinase still bound, per cent of control (ACVR1B (human)): 77%
kinase still bound, per cent of control (AURKB (human)): 2.8%
kinase still bound, per cent of control (AXL (human)): 0.25%
kinase still bound, per cent of control (BMPR2 (human)): 46%
kinase still bound, per cent of control (BMX (human)): 42%
kinase still bound, per cent of control (CAMK2G (human)): 8.8%
kinase still bound, per cent of control (CDK15 (human)): 53%
kinase still bound, per cent of control (CDK16 (human)): 0%
kinase still bound, per cent of control (CDK19 (human)): 100%
kinase still bound, per cent of control (CDK8 (human)): 100%
kinase still bound, per cent of control (CSF1R (human)): 1.2%
kinase still bound, per cent of control (CSNK2A2 (human)): 8%
kinase still bound, per cent of control (DAPK1 (human)): 3.6%
kinase still bound, per cent of control (DCLK2 (human)): 100%
kinase still bound, per cent of control (DDR1 (human)): 55%
kinase still bound, per cent of control (HIPK2 (human)): 7.4%
kinase still bound, per cent of control (HIPK4 (human)): 3%
kinase still bound, per cent of control (IRAK1 (human)): 39%
kinase still bound, per cent of control [1]: 25%
kinase still bound, per cent of control (MAP3K10 (human)): 100%
kinase still bound, per cent of control [2]: 100%
kinase still bound, per cent of control (MKNK1 (human)): 51%
kinase still bound, per cent of control (NTRK1 (human)): 19%
kinase still bound, per cent of control (NUAK1 (human)): 12%
kinase still bound, per cent of control (PAK7 (human)): 17%
kinase still bound, per cent of control [3]: 100%
kinase still bound, per cent of control (PIK3CG (human)): 82%
kinase still bound, per cent of control (PKMYT1 (human)): 90%
kinase still bound, per cent of control (RPS6KA5 KD2 (human)): 75%
kinase still bound, per cent of control (RPS6KA6 KD1 (human)): 51%
kinase still bound, per cent of control (SGK110 (human)): 100%
kinase still bound, per cent of control (SIK3 (human)): 24%
kinase still bound, per cent of control (SRPK3 (human)): 0.25%
kinase still bound, per cent of control (STK3 (human)): 0%
kinase still bound, per cent of control (STK33 (human)): 11%
kinase still bound, per cent of control (STK38 (human)): 86%
kinase still bound, per cent of control (STK38L (human)): 48%
kinase still bound, per cent of control (SYK (human)): 4.6%
kinase still bound, per cent of control (TNIK (human)): 4.6%
kinase still bound, per cent of control (TSSK1B (human)): 100%
kinase still bound, per cent of control (TTK (human)): 3.8%
Compound: O=C1Nc2cc(Br)ccc2/C1=C1/Nc2ccccc2/C1=N\O
